This assay deals with M17-SYNwt cells. The assay can be described thus: α-synuclein cytotoxicity assay (LDH leakage from paraquat-treated M17-SYNwt cells). It counts as cell-based, human. The conditions noted are these: Table 2; for EC50: M17-SYNwt cells, paraquat 32 mM, 40 hours, LDH activity; for % inh. (percentage inhibition): inhibition of synuclein toxicity at most effective concentration relative to untreated paraquat cells. From the text:
An α-synuclein expression plasmid was constructed by sub-cloning the NcoI/XhoI fragment from 212T-SYN(WT) (Griffioen et al., Biochem Biophys Acta (2006) 1762(3):312-318) containing the cDNA of human wild type α-synuclein correspondingly into a standard mammalian expression vector pcDNA3.1 resulting in plasmid pcDNA3.1-SYNwt. Plasmid pcDNA3.1 and pcDNA3.1-SYNwt were transfected to human neuroblastoma cells (ATCC No. CRL-2267) and independent clonal lines with the plasmids stably integrated into the genome were selected. […] Over-expression of α-synuclein in M17-SYNwt cell lines was confirmed by Western analysis.
Due to the high levels of α-synuclein M17-SYNwt cells are exquisitely sensitivity to paraquat, a well-known risk factor of synuclein-dependent neuronal degeneration. In degenerated or dead cells lactate dehydrogenase (LDH) is leaked out of the cells into the extracellular environment due to a loss of plasma-membrane integrity. This principle was used to determine cytotoxicity by quantifying the level of leaked LDH into the growth medium.
The detailed method for determining α-synuclein cytotoxicity was as follows: From appropriate precultures of M17 and M17-SYN cells were seeded at 50000 cells/cm^2 in Optimem Reduced Serum without phenol red (InVitrogen, Cat. 31985-047) supplemented with 5% fetal calf serum, 1 mM sodium pyruvate, 1×non-essential amino acids, 500 μg/ml G418 0.5×antibiotic/antimycotic. After 3 hours of incubation at 37° C./5% CO2 paraquat was added to the cells (final concentration of 32 mM), together with the test compound and the cells were further incubated for 40 hours. Subsequently, LDH activity was determined using Promega Cytotox 96 Non-Radioactive cytotoxicity assay, (Cat. G1780) according the supplier's instructions.
This α-synuclein expressing neuroblastoma cells made it possible to assess the ability of novel compounds to counteract α-synuclein cytotoxicity. […] Since this method monitors leaked LDH from degenerated or dead cells only non-toxic compounds will be identified as active inhibitors of α-synuclein-mediated cytotoxicity. Lack of toxicity is an important characteristic for compounds to be used as a medicament to patients in need. A compound was considered to be active in this test when it inhibits α-synuclein cytotoxicity by more than 25% relative to untreated M17-SYNwt cells at a concentration of 20 μg/mL or lower. In the experiments, the control group consisted of M17-SYNwt cells treated with DMSO, the untreated paraquat group consisted of M17-SYNwt cells treated with paraquat and DMSO, and the treated paraquat group consisted of M17-SYNwt cells treated with paraquat and the test compound dissolved in DMSO.
Percent inhibition was calculated as the synuclein toxicity inhibition by the compound in treated paraquat cells, relative to the synuclein cytotoxicity in untreated paraquat cells.
The compounds from table 1 were screened for activity using the α-synuclein cytotoxicity assay as described above. Dose responses were carried out on all compounds found to be active (10 point curves in duplicate).
A general note: Release of lactate dehydrogenase indicates damage to the cell membrane.

Structures are written as SMILES.

The EC50 is the concentration at which the effect is half-maximal. A lower EC50 goes with higher potency in that assay.

In the case of `COC(=O)COc1ccc(S(=O)(=O)N2CCN(c3nc(-c4ccc(C)cc4)cs3)CC2)cc1` [Compound 33, Methyl 2-(4-(4-(4-p-tolylthiazol-2-yl)piperazin-1-ylsulfonyl)phenoxy)acetate], the “% inh. (percentage inhibition)” value was determined as 21%. This compound also registered an EC50 (Homo sapiens) of 51.6 nM.

On to `CC(=O)NCCc1ccc(S(=O)(=O)N2CCN(c3nc(-c4ccccc4)cs3)CC2)cc1` [Compound 34, N-(4-(4-(4-phenylthiazol-2-yl)piperazin-1-ylsulfonyl)phenethyl)acetamide], for which the “% inh. (percentage inhibition)” value came out at 46%. For the setting “Homo sapiens”, this compound registered an EC50 of 3090 nM.

As to `COc1cccc(-c2csc(N3CCN(S(=O)(=O)c4ccc(F)cc4)CC3)n2)c1` [Compound 35, 1-(4-fluorophenylsulfonyl)-4-(4-(3-methoxyphenyl)thiazol-2-yl)piperazine], the EC50 is 216 nM and the “% inh. (percentage inhibition)” value is 90%.

With `COc1ccc(OC)c(S(=O)(=O)N2CCN(c3nc(-c4ccccc4)cs3)CC2)c1` [Compound 36, 1-(2,5-dimethoxyphenylsulfonyl)-4-(4-phenylthiazol-2-yl)piperazine], the “% inh. (percentage inhibition)” value is recorded as 121%. In addition, the EC50 (Homo sapiens) was determined as 950 nM.

Turning to `COc1ccc(OC)c(S(=O)(=O)N2CCN(c3nc(-c4ccc(Cl)cc4)cs3)CC2)c1` [Compound 37, 1-(4-(4-chlorophenyl)thiazol-2-yl)-4-(2,5-dimethoxyphenylsulfonyl)piperazine], the “% inh. (percentage inhibition)” value worked out at 74%. This compound returned an EC50 (Homo sapiens) of 1290 nM.

Turning to `COc1ccc(-c2csc(N3CCN(S(=O)(=O)c4ccc(OC)c(OC)c4)CC3)n2)cc1` [Compound 38, 1-(3,4-dimethoxyphenylsulfonyl)-4-(4-(4-methoxyphenyl)thiazol-2-yl)piperazine], the “% inh. (percentage inhibition)” value is listed as 65%. For the setting “Homo sapiens”, a half-maximal response (EC50) required 1060 nM.

As to `COc1ccc(-c2csc(N3CCN(S(=O)(=O)c4cc(OC)ccc4OC)CC3)n2)cc1` [Compound 39, 1-(2,5-dimethoxyphenylsulfonyl)-4-(4-(4-methoxyphenyl)thiazol-2-yl)piperazine], the “% inh. (percentage inhibition)” value is on record as 107%. This compound returned an EC50 (Homo sapiens) of 6750 nM.

Regarding `Cc1ccc(S(=O)(=O)N2CCN(c3nc(-c4ccccc4)cs3)CC2)cc1` [Compound 44, 1-(4-phenylthiazol-2-yl)-4-tosylpiperazine], the “% inh. (percentage inhibition)” value stood at 72%. Also, the EC50 (Homo sapiens) was 197 nM.

Take `COc1ccc(S(=O)(=O)N2CCN(Cc3nc(-c4ccc(F)cc4)cs3)CC2)cc1` [Compound 47, 1-((4-(4-fluorophenyl)thiazol-2-yl)methyl)-4-(4-methoxyphenylsulfonyl)piperazine]: the “% inh. (percentage inhibition)” value is given as 86%. Further, where the note is “Homo sapiens”, the EC50 was 39.9 nM.

With `COc1ccc(S(=O)(=O)N2CCC(c3nc(-c4ccc(F)cc4)cs3)CC2)cc1` [Compound 48, 4-(4-(4-fluorophenyl)thiazol-2-yl)-1-(4-methoxyphenylsulfonyl)piperidine], the “% inh. (percentage inhibition)” value came out at 90%. Besides, the EC50 (Homo sapiens) is 49.4 nM.

For `COc1ccc(S(=O)(=O)N2CCN(c3nc(-c4ccncc4)cs3)CC2)cc1` [Compound 49, 1-(4-methoxyphenylsulfonyl)-4-(4-(pyridin-4-yl)thiazol-2-yl)piperazine], the “% inh. (percentage inhibition)” value is given as 114%. In addition, the EC50 (Homo sapiens) stood at 75 nM.

As for `COc1ccc(F)cc1S(=O)(=O)N1CCN(c2nc(-c3ccc(C)cc3)cs2)CC1` [Compound 50, 1-(5-fluoro-2-methoxyphenylsulfonyl)-4-(4-(4-methylphenyl)thiazol-2-yl)piperazine], the “% inh. (percentage inhibition)” value was 104%. This compound returned a concentration for a half-maximal effect (EC50) (Homo sapiens) of 1770 nM.

Regarding `COc1cc(F)ccc1S(=O)(=O)N1CCN(c2nc(-c3ccc(C)cc3)cs2)CC1` [Compound 51, 1-(4-fluoro-2-methoxyphenylsulfonyl)-4-(4-(4-methylphenyl)thiazol-2-yl)piperazine], the “% inh. (percentage inhibition)” value is reported as 88%. The compound also gave an EC50 (Homo sapiens) of 2500 nM.

For the compound `O=S(=O)(c1cccnc1)N1CCN(c2nc(-c3ccc(F)cc3)cs2)CC1` [Compound 54, 1-(4-(4-fluorophenyl)thiazol-2-yl)-4-(pyridin-3-ylsulfonyl)piperazine], the “% inh. (percentage inhibition)” value is listed as 91%. The EC50 (Homo sapiens) amounted to 1230 nM.

Take `Cc1n[nH]c(C)c1S(=O)(=O)N1CCN(c2nc(-c3ccc(F)cc3)cs2)CC1` [Compound 55, 1-(4-(4-fluorophenyl)thiazol-2-yl)-4-(3,5-dimethyl-1H-pyrazol-4-ylsulfonyl)piperazine]: the “% inh. (percentage inhibition)” value came out at 91%. In addition, for the setting “Homo sapiens”, the EC50 is 657 nM.

Take `O=S(=O)(c1ccc(Cl)s1)N1CCN(c2nc(-c3ccccc3)cs2)CC1` [Compound 56, 1-(5-chlorothiophen-2-ylsulfonyl)-4-(4-phenylthiazol-2-yl)piperazine]: the “% inh. (percentage inhibition)” value is given as 98%. The EC50 (Homo sapiens) amounted to 752 nM.

Regarding `COc1ccc(-c2csc(N3CCN(S(=O)(=O)c4cccs4)CC3)n2)cc1` [Compound 57, 1-(thiophen-2-ylsulfonyl)-4-(4-(4-methoxyphenyl)thiazol-2-yl)piperazine], the “% inh. (percentage inhibition)” value is 88%. Besides, the EC50 (Homo sapiens) worked out at 721 nM.

Consider `O=S(=O)(c1cccs1)N1CCN(c2nc(-c3ccc(Cl)cc3)cs2)CC1` [Compound 58, 1-(thiophen-2-ylsulfonyl)-4-(4-(4-chlorophenyl)thiazol-2-yl)piperazine], for which the “% inh. (percentage inhibition)” value amounted to 99%. Further, the EC50 (Homo sapiens) amounted to 3750 nM.

Regarding `O=[N+]([O-])c1ccc(-c2csc(N3CCN(S(=O)(=O)c4cccs4)CC3)n2)cc1` [Compound 60, 1-(thiophen-2-ylsulfonyl)-4-(4-(4-nitrophenyl)thiazol-2-yl)piperazine], the “% inh. (percentage inhibition)” value was 79%. Also, the EC50 (Homo sapiens) is 1240 nM.

On to `O=S(=O)(N1CCCC1)N1CCN(c2nc(-c3ccccc3)cs2)CC1` [Compound 61, 1-(4-phenylthiazol-2-yl)-4-(pyrrolidin-1-ylsulfonyl)piperazine], for which the “% inh. (percentage inhibition)” value is given as 127%. For the setting “Homo sapiens”, this compound showed an EC50 of 1740 nM.

Regarding `Cc1ccc(-c2csc(N3CCN(S(=O)(=O)N4CCCC4)CC3)n2)cc1` [Compound 62, 1-(4-(4-methylphenyl)thiazol-2-yl)-4-(pyrrolidin-1-ylsulfonyl)piperazine], the “% inh. (percentage inhibition)” value worked out at 112%. Also, the EC50 (Homo sapiens) was 1930 nM.

`COc1ccc(-c2csc(N3CCN(S(=O)(=O)N4CCCC4)CC3)n2)cc1` [Compound 63, 1-(4-(4-methoxyphenyl)thiazol-2-yl)-4-(pyrrolidin-1-ylsulfonyl)piperazine]: the “% inh. (percentage inhibition)” value is 69%. This compound had an EC50 (Homo sapiens) of 3180 nM.

Take `O=S(=O)(c1ccc2c(c1)OCCO2)N1CCN(c2nc(-c3ccccc3)cs2)CC1` [Compound 69, 1-(2,3-dihydrobenzo[b][1,4]dioxin-6-ylsulfonyl)-4-(4-phenylthiazol-2-yl)piperazine]: the “% inh. (percentage inhibition)” value stood at 89%. The compound also displayed an EC50 (Homo sapiens) of 434 nM.

Take `COc1ccc(-c2csc(N3CCN(S(=O)(=O)c4ccc5c(c4)OCCO5)CC3)n2)cc1` [Compound 70, 1-(2,3-dihydrobenzo[b][1,4]dioxin-6-ylsulfonyl)-4-(4-(4-methoxyphenyl)thiazol-2-yl)piperazine]: the “% inh. (percentage inhibition)” value was 83%. Further, the EC50 (Homo sapiens) came out at 1960 nM.

In the case of `O=[N+]([O-])c1ccc(-c2csc(N3CCN(S(=O)(=O)c4ccc5c(c4)OCCO5)CC3)n2)cc1` [Compound 71, 1-(2,3-dihydrobenzo[b][1,4]dioxin-6-ylsulfonyl)-4-(4-(4-nitrophenyl)thiazol-2-yl)piperazine], the “% inh. (percentage inhibition)” value was found to be 77%. This compound also registered an EC50 (Homo sapiens) of 1440 nM.

For `O=[N+]([O-])c1cccc(-c2csc(N3CCN(S(=O)(=O)c4ccc5c(c4)OCCO5)CC3)n2)c1` [Compound 72, 1-(2,3-dihydrobenzo[b][1,4]dioxin-6-ylsulfonyl)-4-(4-(3-nitrophenyl)thiazol-2-yl)piperazine], the “% inh. (percentage inhibition)” value is recorded as 85%. For the same compound, the EC50 (Homo sapiens) is 23500 nM.

The values above are taken from patent US8722681B2, “N-sulfonyl thiazolylpiperazine derivatives and related N-sulfonyl heterocyclic derivatives for the treatment of neuro degenerative diseases” (NV reMYND, priority 2007, dated 2014).
